# Measured values as given in PubChem BioAssay (NCI).
#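 Briefly, cells in 96-well plates were exposed to five compound concentrations for 48 h, and endpoints were estimated by linear interpolation. GI50 marks 50% less growth. The concentration for full growth arrest is given as TGI.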
# How the values were obtained:
# Assay in all cases: growth of human tumour cells (NCI), 48 h
# [1] = tested on: 786-0 renal
# [2] = tested on: A498 renal
# [3] = tested on: A549 NSCLC
# [4] = tested on: ACHN renal
# [5] = tested on: BT-549 breast
# [6] = tested on: CAKI-1 renal
# [7] = tested on: CCRF-CEM leukemia
# [8] = tested on: COLO 205 colon
# [9] = tested on: DU-145 prostate
# [10] = tested on: EKVX NSCLC
# [11] = tested on: HCC-2998 colon
# [12] = tested on: HCT-116 colon
# [13] = tested on: HCT-15 colon
# [14] = tested on: HL-60(TB) leukemia
# [15] = tested on: HOP-62 NSCLC
# [16] = tested on: HOP-92 NSCLC
# [17] = tested on: HS 578T breast
# [18] = tested on: HT29 colon
# [19] = tested on: IGROV1 ovarian
# [20] = tested on: K-562 leukemia
# [21] = tested on: KM12 colon
# [22] = tested on: LOX IMVI melanoma
# [23] = tested on: M14 melanoma
# [24] = tested on: MALME-3M melanoma
# [25] = tested on: MCF7 breast
# [26] = tested on: MDA-MB-231 breast
# [27] = tested on: MDA-MB-435
# [28] = tested on: MOLT-4 leukemia
# [29] = tested on: NCI-H226 lung
# [30] = tested on: NCI-H460 lung
# [31] = tested on: NCI-H522 lung
# [32] = tested on: NCI/ADR-RES ovarian
# [33] = tested on: OVCAR-3 ovarian
# [34] = tested on: OVCAR-4 ovarian
# [35] = tested on: OVCAR-5 ovarian
# [36] = tested on: OVCAR-8 ovarian
# [37] = tested on: PC-3 prostate
# [38] = tested on: RPMI-8226 leukemia
# [39] = tested on: RXF 393 renal
# [40] = tested on: SF-268 CNS
# [41] = tested on: SF-295 CNS
# [42] = tested on: SF-539 CNS
# [43] = tested on: SK-MEL-2 melanoma
# [44] = tested on: SK-MEL-28 melanoma
# [45] = tested on: SK-MEL-5 melanoma
# [46] = tested on: SK-OV-3 ovarian
# [47] = tested on: SN12C renal
# [48] = tested on: SNB-19 CNS
# [49] = tested on: SNB-75 CNS
# [50] = tested on: SR leukemia
# [51] = tested on: SW-620 colon
# [52] = tested on: T-47D breast
# [53] = tested on: TK-10 renal
# [54] = tested on: U251 CNS
# [55] = tested on: UACC-257 melanoma
# [56] = tested on: UO-31 renal
smiles,measurement,setting,value
O=C1C2=C(C(=O)c3c(O)cccc31)C(c1ccco1)c1sc(=O)[nH]c1S2 (stereo unspecified),GI50,[1],7.09 µM
same,TGI,[1],24.2 µM
same,GI50,[2],3.48 µM
same,TGI,[2],9.69 µM
same,GI50,[3],1.78 µM
same,TGI,[3],3.63 µM
same,GI50,[4],4.08 µM
same,TGI,[4],16.1 µM
same,GI50,[5],1.64 µM
same,TGI,[5],3.2 µM
same,GI50,[6],3.29 µM
same,TGI,[6],13.9 µM
same,GI50,[7],3.29 µM
same,TGI,[7],> 100 µM
same,GI50,[8],1.89 µM
same,TGI,[8],3.61 µM
same,GI50,[9],1.55 µM
same,TGI,[9],3.01 µM
same,GI50,[10],6.75 µM
same,TGI,[10],19.4 µM
same,GI50,[11],2.5 µM
same,TGI,[11],5.51 µM
same,GI50,[12],2.36 µM
same,GI50,[13],1.75 µM
same,TGI,[13],3.88 µM
same,GI50,[14],1.82 µM
same,TGI,[14],6.09 µM
same,GI50,[15],2.04 µM
same,TGI,[15],3.74 µM
same,GI50,[16],3.15 µM
same,TGI,[16],8.08 µM
same,GI50,[17],2.2 µM
same,TGI,[17],6.56 µM
same,GI50,[18],3.31 µM
same,TGI,[18],9.25 µM
same,GI50,[19],2.51 µM
same,TGI,[19],6.14 µM
same,GI50,[20],2.84 µM
same,TGI,[20],> 100 µM
same,GI50,[21],3.71 µM
same,TGI,[21],31.3 µM
same,GI50,[22],2.21 µM
same,TGI,[22],7.55 µM
same,GI50,[23],1.06 µM
same,TGI,[23],2.37 µM
same,GI50,[24],0.755 µM
same,TGI,[24],2 µM
same,GI50,[25],1.39 µM
same,TGI,[25],3.34 µM
same,GI50,[26],2.73 µM
same,TGI,[26],9.08 µM
same,GI50,[27],1.16 µM
same,TGI,[27],2.47 µM
same,GI50,[28],2.71 µM
same,TGI,[28],9.88 µM
same,GI50,[29],2.18 µM
same,TGI,[29],5.46 µM
same,GI50,[30],1.54 µM
same,TGI,[30],3.48 µM
same,GI50,[31],2.31 µM
same,TGI,[31],6.99 µM
same,GI50,[32],3.02 µM
same,TGI,[32],12.3 µM
same,GI50,[33],2.86 µM
same,TGI,[33],14 µM
same,GI50,[34],1.79 µM
same,TGI,[34],3.95 µM
same,GI50,[35],2.13 µM
same,TGI,[35],4.58 µM
same,GI50,[36],2.46 µM
same,TGI,[36],8.97 µM
same,GI50,[37],2.75 µM
same,TGI,[37],21.6 µM
same,GI50,[38],2.62 µM
same,TGI,[38],9.83 µM
same,GI50,[39],2.02 µM
same,TGI,[39],5.57 µM
same,GI50,[40],3.48 µM
same,TGI,[40],19.2 µM
same,GI50,[41],1.98 µM
same,TGI,[41],3.59 µM
same,GI50,[42],1.93 µM
same,TGI,[42],3.69 µM
same,GI50,[43],3.51 µM
same,TGI,[43],16.4 µM
same,GI50,[44],1.87 µM
same,TGI,[44],3.72 µM
same,GI50,[45],1.59 µM
same,TGI,[45],3 µM
same,GI50,[46],15.5 µM
same,TGI,[46],29.6 µM
same,GI50,[47],1.74 µM
same,TGI,[47],3.49 µM
same,GI50,[48],2.6 µM
same,TGI,[48],7.33 µM
same,GI50,[49],3.17 µM
same,TGI,[49],7.61 µM
same,GI50,[50],3.05 µM
same,TGI,[50],69.5 µM
same,GI50,[51],3.28 µM
same,TGI,[51],10.5 µM
same,GI50,[52],2.87 µM
same,TGI,[52],13 µM
same,GI50,[53],12.3 µM
same,TGI,[53],26.4 µM
same,GI50,[54],3.07 µM
same,TGI,[54],10.1 µM
same,GI50,[55],1.57 µM
same,TGI,[55],3.26 µM
same,GI50,[56],2.56 µM
same,TGI,[56],13.5 µM
